Assay results: ChEMBL document CHEMBL3734703, “(E)-2-Cyano-3-(substituted phenyl)acrylamide analogs as potent inhibitors of tyrosinase: A linear β-phenyl-α,β-unsaturated carbonyl scaffold” (Bioorg Med Chem, 2015)
The source made the active and inactive calls. The calls are words filed in the database; no cut-off is given here.

Experiments:
[1] = target: T1, Tyrosinase (Agaricus bisporus) (UniProt O42713); assay: Competitive inhibition of mushroom tyrosinase using L-tyrosine as substrate assessed as dopachrome production after 30 mins by Lineweaver-Burk plot analysis
T1 sequence (whole entry): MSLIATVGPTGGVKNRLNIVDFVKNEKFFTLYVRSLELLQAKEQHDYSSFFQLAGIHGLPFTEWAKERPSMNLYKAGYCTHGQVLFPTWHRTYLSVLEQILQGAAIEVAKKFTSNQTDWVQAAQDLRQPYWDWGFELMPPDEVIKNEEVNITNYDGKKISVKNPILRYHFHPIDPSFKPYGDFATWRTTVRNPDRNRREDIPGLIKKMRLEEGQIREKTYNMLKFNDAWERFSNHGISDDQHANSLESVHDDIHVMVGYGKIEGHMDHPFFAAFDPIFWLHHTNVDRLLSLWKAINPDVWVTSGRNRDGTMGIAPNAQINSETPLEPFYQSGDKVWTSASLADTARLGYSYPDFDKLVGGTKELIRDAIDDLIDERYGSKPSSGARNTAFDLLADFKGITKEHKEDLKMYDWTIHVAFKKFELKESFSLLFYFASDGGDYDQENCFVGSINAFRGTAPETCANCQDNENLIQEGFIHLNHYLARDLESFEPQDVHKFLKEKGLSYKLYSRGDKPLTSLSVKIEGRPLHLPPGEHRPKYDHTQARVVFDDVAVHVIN

[2] = Cytotoxicity against mouse B16F10 cells assessed as cell viability at 5 uM after 24 hrs by MTT assay relative to control; assay type: cell-based, B16-F10; conditions: read-out: Activity
[3] = Cytotoxicity against mouse B16F10 cells assessed as cell viability at 10 uM after 24 hrs by MTT assay relative to control; assay type: cell-based, B16-F10; conditions: read-out: Activity
[4] = Cytotoxicity against mouse B16F10 cells assessed as cell viability at 25 uM after 24 hrs by MTT assay relative to control; assay type: cell-based, B16-F10; conditions: read-out: Activity
B16-F10 [5] = assay: Inhibition of alpha-MSH-mediated melanin biosynthesis in mouse B16F10 cells after 24 hrs; assay type: functional, cell-based
[6] = target: T2, Tyrosinase (Mus musculus) (UniProt P11344); assay: Inhibition of tyrosinase in alpha-MSH-stimulated mouse B16F10 cells assessed as L-DOPA oxidation after 24 hrs; assay type: cell-based; conditions: B16-F10
T2 sequence (whole entry): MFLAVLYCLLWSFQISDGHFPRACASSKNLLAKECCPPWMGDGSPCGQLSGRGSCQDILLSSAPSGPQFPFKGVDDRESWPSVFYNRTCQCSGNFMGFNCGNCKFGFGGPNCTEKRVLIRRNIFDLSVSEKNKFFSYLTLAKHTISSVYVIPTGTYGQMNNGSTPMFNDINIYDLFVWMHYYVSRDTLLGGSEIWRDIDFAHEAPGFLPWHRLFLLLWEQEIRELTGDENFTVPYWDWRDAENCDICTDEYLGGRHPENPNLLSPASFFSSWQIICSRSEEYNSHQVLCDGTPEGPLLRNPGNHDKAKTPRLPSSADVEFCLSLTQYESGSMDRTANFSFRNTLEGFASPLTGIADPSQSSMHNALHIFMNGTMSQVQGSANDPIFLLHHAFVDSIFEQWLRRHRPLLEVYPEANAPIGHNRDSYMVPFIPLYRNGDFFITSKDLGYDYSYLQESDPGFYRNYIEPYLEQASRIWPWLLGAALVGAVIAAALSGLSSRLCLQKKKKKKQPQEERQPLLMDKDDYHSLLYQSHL

B16-F10 [7] = assay: Inhibition of alpha-MSH-mediated melanin biosynthesis in mouse B16F10 cells at 25 uM after 24 hrs; assay type: functional, cell-based

Compound	inhibition [1]	viability at 24 h, 5 µM [2]	viability at 24 h, 10 µM [3]	viability at 24 h, 25 µM [4]	inhibition (B16-F10 [5])	inhibition [6]	inhibition (B16-F10 [7])
N#C/C(=C\c1ccc(O)c(O)c1)C(N)=O	Dose-dependent effect	99.6%	98.6%	96.9%	Dose-dependent effect	Dose-dependent effect	–
O=c1cc(CO)occ1O	–	–	–	–	–	–	Active
